In paper PMC4635624, “In vitro and in vivo single-agent efficacy of checkpoint kinase inhibition in acute lymphoblastic leukemia” (Journal of Hematology & Oncology, 2015):

Tested on: leukemia cell lines
Test: PARP-1 cleavage by Western blot
Assay type: cell-based, human
Details: 24 h of drug exposure; undetectable with DMSO 0.1 %
Experimental: In order to assess whether cytotoxicity was correlated to increased susceptibility to apoptosis, B-/T-ALL cell lines were incubated with increasing concentrations of drug (0.1, 0.5, and 1 μM and 0.05, 0.1, and 0.2 μM only for BV-173 and RPMI-8402, respectively) for 24 and 48 h. […] The induction of apoptosis by PF-00477736 was also assessed by the detection of poly (ADP-ribose) polymerase (PARP) cleavage by Western blot analysis.
To gain insight into the molecular mechanisms responsible for cell death following treatment, functional analyses by Western blot were performed. Leukemia cell lines were plated in six-well plates at 500,000 cell/1 ml with increasing concentrations of drug for 24 h and incubated at 37 °C. After the treatment, the cells were collected and lysate using a specific buffer made of KH2PO4 0.1 M (pH 7.5), Igepal 1 % (NP-40), β-glicerofosfato 0.1 mM, and complete protease inhibitor cocktail 1× (Roche Diagnostics). […] Finally, all these antibodies were detected using the enhanced chemiluminescence kit ECL (GE) and the compact darkroom ChemiDoc-It (UVP).

Question: `Cn1cc(-c2[nH]c3cc(NC(=O)[C@H](N)C4CCCCC4)cc4c3c2C=NNC4=O)cn1` [PF-00477736] was tested. Which PARP-1 cleavage did it give?
Answer: PARP-1 cleavage band at 89 kDa was observed
